Target: Seed linoleate 13S-lipoxygenase-1 (Glycine max) (UniProt P08170)
Assay: Inhibitory activity against soybean 15-lipoxygenase was evaluated

Seed linoleate 13S-lipoxygenase-1 (Glycine max), sequence (P08170 whole entry, looked up): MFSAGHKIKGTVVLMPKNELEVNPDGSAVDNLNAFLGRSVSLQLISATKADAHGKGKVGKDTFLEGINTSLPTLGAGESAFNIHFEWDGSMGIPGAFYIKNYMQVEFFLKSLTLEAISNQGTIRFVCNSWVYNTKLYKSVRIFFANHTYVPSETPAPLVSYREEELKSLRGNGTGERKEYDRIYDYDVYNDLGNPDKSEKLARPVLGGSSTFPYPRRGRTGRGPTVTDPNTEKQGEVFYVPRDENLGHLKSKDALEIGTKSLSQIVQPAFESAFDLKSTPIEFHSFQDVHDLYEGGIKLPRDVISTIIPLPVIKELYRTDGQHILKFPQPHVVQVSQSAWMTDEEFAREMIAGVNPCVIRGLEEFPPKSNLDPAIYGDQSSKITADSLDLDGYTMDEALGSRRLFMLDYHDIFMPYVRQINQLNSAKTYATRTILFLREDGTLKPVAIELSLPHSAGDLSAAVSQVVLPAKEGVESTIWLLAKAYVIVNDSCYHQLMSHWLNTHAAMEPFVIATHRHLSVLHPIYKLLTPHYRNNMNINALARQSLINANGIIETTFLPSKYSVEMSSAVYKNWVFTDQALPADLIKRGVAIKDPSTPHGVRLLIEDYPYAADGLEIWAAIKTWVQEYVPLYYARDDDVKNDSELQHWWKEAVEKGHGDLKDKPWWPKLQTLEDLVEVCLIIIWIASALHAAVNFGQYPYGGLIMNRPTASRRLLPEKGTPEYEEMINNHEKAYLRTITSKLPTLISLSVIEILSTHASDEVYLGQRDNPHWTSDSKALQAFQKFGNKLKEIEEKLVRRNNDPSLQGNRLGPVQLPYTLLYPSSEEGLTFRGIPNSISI

- IC50: 213 µM
Structure (SMILES): NC1=NN(c2cccc(C(F)(F)F)c2)CC1 [1-(3-Trifluoromethyl-phenyl)-4,5-dihydro-1H-pyrazol-3-ylamine]

— BindingDB's records for doi:10.1016/S0960-894X(00)80511-9 (1992)
